Where a name gives a salt, the structure may show the parent alone.
Target: T1, NLRP3 (Homo sapiens, UniProt Q96P20)
T1 construct: Seed THP-1 cells (25,000 cells/well) containing 1.0 μg/ml LPS in 40 μl of RPMI medium; host or cells: THP-1 cells
Test: THP-1 cells pyroptosis assay
Type: cell-based
Conditions: LPS 1 μg/ml, compound 3 hrs, nigericin 5 μM 1 hr, resazurin readout
In short: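 LPS-primed (1 μg/ml) THP-1 cells in serum-free RPMI were treated 3 h with compound (8-point half-log, top 10 μM; 0.1% DMSO), then with 5 μM nigericin for 1 h at 37°C. Viability was read by 100 μM resazurin (ex 560/em 590 nm) after 1–2 h. IC50 came from 4-parameter nonlinear regression.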

T1 sequence (Q96P20 whole entry): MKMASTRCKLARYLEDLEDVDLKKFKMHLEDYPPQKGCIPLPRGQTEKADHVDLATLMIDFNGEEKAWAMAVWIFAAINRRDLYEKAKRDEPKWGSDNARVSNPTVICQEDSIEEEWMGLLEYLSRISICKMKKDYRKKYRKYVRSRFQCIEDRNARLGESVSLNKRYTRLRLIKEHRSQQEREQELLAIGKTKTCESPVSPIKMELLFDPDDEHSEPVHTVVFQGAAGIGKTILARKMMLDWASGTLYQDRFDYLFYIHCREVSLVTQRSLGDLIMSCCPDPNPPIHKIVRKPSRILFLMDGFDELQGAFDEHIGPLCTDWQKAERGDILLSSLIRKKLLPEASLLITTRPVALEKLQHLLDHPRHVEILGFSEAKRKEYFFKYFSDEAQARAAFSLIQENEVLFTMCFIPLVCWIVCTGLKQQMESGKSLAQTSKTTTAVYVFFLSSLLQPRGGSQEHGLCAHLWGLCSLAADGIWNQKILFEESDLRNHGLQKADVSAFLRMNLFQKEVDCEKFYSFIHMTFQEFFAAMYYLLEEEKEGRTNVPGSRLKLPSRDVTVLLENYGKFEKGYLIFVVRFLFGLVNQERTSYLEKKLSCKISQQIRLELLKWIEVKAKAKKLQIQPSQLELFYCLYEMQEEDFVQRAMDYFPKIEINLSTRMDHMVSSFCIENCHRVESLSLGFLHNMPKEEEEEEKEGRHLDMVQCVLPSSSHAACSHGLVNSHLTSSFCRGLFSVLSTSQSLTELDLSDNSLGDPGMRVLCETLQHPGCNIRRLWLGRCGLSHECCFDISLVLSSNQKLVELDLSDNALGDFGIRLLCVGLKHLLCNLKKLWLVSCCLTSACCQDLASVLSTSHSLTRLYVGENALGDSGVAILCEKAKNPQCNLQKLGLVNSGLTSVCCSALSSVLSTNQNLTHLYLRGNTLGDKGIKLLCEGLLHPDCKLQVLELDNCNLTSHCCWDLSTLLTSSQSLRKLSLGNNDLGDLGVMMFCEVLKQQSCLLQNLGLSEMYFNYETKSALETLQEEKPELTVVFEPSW

| IC50 [µM] | Structure (SMILES) |
| --- | --- |
| ≤ 5 | COc1cc(-c2cc(F)cc(C(C)C)c2CC(=O)NS(=O)(=O)c2ccc(C(C)(C)NC(C)=O)c(F)c2)ccn1 [Example 88, N-((4-(2-Acetamidopropan-2-yl)-3-fluorophenyl)sulfonyl)-2-(4-fluoro-2-isopropyl-6-(2-methoxypyridin-4-yl)phenyl)acetamide] |
| ≤ 5 | COc1cc(-c2cc(F)cc(C(C)C)c2CC(=O)NS(=O)(=O)c2cnc(C(C)(C)O)s2)ccn1 [Example 108, 2-(4-Fluoro-2-isopropyl-6-(2-methoxypyridin-4-yl)phenyl)-N-((2-(2-hydroxypropan-2-yl)thiazol-5-yl)sulfonyl)acetamide] |
| ≤ 1 | COc1cc(-c2cc(F)cc(C(C)C)c2CC(=O)NS(=O)(=O)c2cc3ccccc3o2)ccn1 [Example 116] |
| ≤ 0.5 | C=C(C)c1csc(S(=O)(=O)NC(=O)Cc2c(-c3ccnc(OC)c3)cc(F)cc2C(C)C)c1 [Example 150] |
| ≤ 5 | COc1cc(-c2cc(F)cc(C(C)C)c2CC(=O)NS(=O)(=O)c2ccc(CC#N)cc2)ccn1 [Example 187] |
| ≤ 5 | CN(C)C(=O)c1cc(S(=O)(=O)NC(=O)Cc2c(-c3ccnc(C#N)c3)ccc3c2CCC3)nn1C [Example 65, 3-(N-(2-(5-(2-Cyanopyridin-4-yl)-2,3-dihydro-1H-inden-4-yl)acetyl)sulfamoyl)-N,N,1-trimethyl-1H-pyrazole-5-carboxamide] |
| ≤ 5 | COc1cc(-c2cc(F)cc(C(C)C)c2CC(=O)NS(=O)(=O)c2cn(CC(F)F)nc2C)ccn1 [Example 169] |
| ≤ 5 | COc1cc(-c2cc(F)cc(C(C)C)c2CC(=O)NS(=O)(=O)c2ccc(CN(C)C)cc2)ccn1 [Example 31, N-((4-((Dimethylamino)methyl)phenyl)sulfonyl)-2-(4-fluoro-2-isopropyl-6-(2-methoxypyridin-4-yl)phenyl)acetamide, potassium salt] |
| ≤ 1 | CCCn1cc(S(=O)(=O)NC(=O)Cc2c(-c3ccnc(OC)c3)cc(F)cc2C(C)C)c(C)n1 [Example 207] |
| ≤ 5 | COC(=O)c1cc(S(=O)(=O)NC(=O)Cc2c(-c3ccnc(OC)c3)cc(F)cc2C(C)C)ccc1F [Example 92, Methyl 2-fluoro-5-(N-(2-(4-fluoro-2-isopropyl-6-(2-methoxypyridin-4-yl)phenyl)acetyl)sulfamoyl)benzoate] |
| ≤ 10 | COc1cc(-c2cc(F)cc(C(C)C)c2CC(=O)NS(=O)(=O)c2ccc(C(=O)N(C)C)c(Cl)c2)ccn1 [Example 96, 2-Chloro-4-(N-(2-(4-fluoro-2-isopropyl-6-(2-methoxypyridin-4-yl)phenyl)acetyl)sulfamoyl)-N,N-dimethylbenzamide] |
| ≤ 10 | COc1cc(-c2cc(F)cc(C(C)C)c2CC(=O)NS(=O)(=O)C[C@]23CCC(CC2=O)C3(C)C)ccn1 [Example 75] |
| ≤ 1 | COc1cc(-c2cc(F)cc(C(C)C)c2CC(=O)NS(=O)(=O)c2ccc(Br)cc2)ccn1 [Example 19] |
| ≤ 1 | COc1cc(-c2cc(F)cc(C(C)C)c2CC(=O)NS(=O)(=O)c2cnc3c(c2)c(C)nn3C)ccn1 [Example 94, N-((1,3-Dimethyl-1H-pyrazolo[3,4-b]pyridin-5-yl)sulfonyl)-2-(4-fluoro-2-isopropyl-6-(2-methoxypyridin-4-yl)phenyl)acetamide] |
| ≤ 1 | COc1cc(-c2cc(F)cc(C(C)C)c2CC(=O)NS(=O)(=O)c2ccc(Cl)cc2C)ccn1 [Example 136] |
| ≤ 1 | COc1cc(-c2cc(F)cc(C(C)C)c2CC(=O)NS(=O)(=O)c2c(F)cc(C)cc2F)ccn1 [Example 113] |
| ≤ 5 | COc1cc(-c2cc(F)cc(C(C)C)c2CC(=O)NS(=O)(=O)c2cc(CN(C)C)n(C)n2)ccn1 [Example 62, N-((5-((Dimethylamino)methyl)-1-methyl-1H-pyrazol-3-yl)sulfonyl)-2-(4-fluoro-2-isopropyl-6-(2-methoxypyridin-4-yl)phenyl) acetamide] |
| ≤ 10 | COc1cc(-c2cc(F)cc(C(C)C)c2CC(=O)NS(=O)(=O)c2ccc(=O)n(C)c2)ccn1 [Example 1, 2-(4-Fluoro-2-isopropyl-6-(2-methoxypyridin-4-yl)phenyl)-N-((1-methyl-6-oxo-,6-dihydropyridin-3-yl)sulfonyl)acetamide, potassium salt] |
| ≤ 1 | COc1cc(-c2cc(F)cc(C(C)C)c2CC(=O)NS(=O)(=O)c2cccc(CO)c2)ccn1 [Example 38, 2-(4-Fluoro-2-isopropyl-6-(2-methoxypyridin-4-yl)phenyl)-N-((3-(hydroxymethyl)phenyl)sulfonyl)acetamide, potassium salt] |
| ≤ 0.5 | COc1cc(-c2cc(F)cc(C(C)C)c2CC(=O)NS(=O)(=O)c2cc(C(C)(C)OC)cs2)ccn1 [Example 144] |
| ≤ 1 | CC(C)c1cc(F)cc(-c2cccnc2)c1CC(=O)NS(=O)(=O)c1ncc(C(C)(C)O)s1 [Example 143] |
| ≤ 1 | COc1cc(-c2cc(F)cc(C(C)C)c2CC(=O)NS(=O)(=O)c2ccc3c(c2)CCCO3)ccn1 [Example 118] |

| IC50 [µM] | Structure (SMILES) |
| --- | --- |
| ≤ 0.5 | C=C(C)c1ccc(C)c(S(=O)(=O)NC(=O)Cc2c(-c3ccnc(OC)c3)cc(F)cc2C(C)C)c1 [Example 209] |
| ≤ 5 | COc1cc(-c2cc(F)cc(C(C)C)c2CC(=O)NS(=O)(=O)c2cnc(N(C)C)cc2C)ccn1 [Example 162] |
| ≤ 5 | CC(C)c1cc(F)cc(-c2ccncc2)c1CC(=O)NS(=O)(=O)c1cc(CN(C)C)n(C)n1 [Example 73, N-((5-((Dimethylamino)methyl)-1-methyl-H-pyrazol-3-yl)sulfonyl)-2-(4-fluoro-2-isopropyl-6-(pyridin-4-yl)phenyl)acetamide] |
| ≤ 5 | CC(C)c1cc(F)cc(-c2ccncc2)c1CC(=O)NS(=O)(=O)c1cc(C(=O)N(C)C)n(C)n1 [Example 60, 3-(N-(2-(4-Fluoro-2-isopropyl-6-(pyridin-4-yl)phenyl)acetyl)sulfamoyl)-N,N,1-trimethyl-1H-pyrazole-5-carboxamide] |
| ≤ 5 | COc1cc(-c2cc(F)cc(C(C)C)c2CC(=O)NS(=O)(=O)c2cn(CC(C)C)nc2C)ccn1 [Example 208] |
| ≤ 5 | COc1cc(-c2cc(F)cc(C(C)C)c2CC(=O)NS(=O)(=O)c2ccc(C(C)(C)O)cc2)ccn1 [Example 80, 2-(4-Fluoro-2-isopropyl-6-(2-methoxypyridin-4-yl)phenyl)-N-((4-(2-hydroxypropan-2-yl)phenyl)sulfonyl)acetamide] |
| ≤ 1 | COc1cc(-c2cc(F)cc(C(C)C)c2CC(=O)NS(=O)(=O)c2ccc(Cl)cc2F)ccn1 [Example 4] |
| ≤ 5 | COc1cc(-c2ccc3c(c2CC(=O)NS(=O)(=O)c2cnc(C(C)(C)O)s2)CCC3)ccn1 [Example 107, N-((2-(2-Hydroxypropan-2-yl)thiazol-5-yl)sulfonyl)-2-(5-(2-methoxypyridin-4-yl)-2,3-dihydro-1H-inden-4-yl)acetamide] |
| ≤ 0.5 | COc1cc(-c2cc(F)cc(C(C)C)c2CC(=O)NS(=O)(=O)c2ccnc(C(C)(C)O)c2)ccn1 [Example 181] |
| ≤ 10 | COc1cc(-c2ccc3c(c2CC(=O)NS(=O)(=O)c2cc(C(=O)N(C)C)n(C)n2)CCC3)ccn1 [Example 64, 3-(N-(2-(5-(2-Methoxypyridin-4-yl)-2,3-dihydro-1H-inden-4-yl)acetyl)sulfamoyl)-N,N,1-trimethyl-1H-pyrazole-5-carboxamide] |
| ≤ 5 | CCOC(=O)c1cc(S(=O)(=O)NC(=O)Cc2c(-c3ccnc(OC)c3)cc(F)cc2C(C)C)nn1C [Example 28, Ethyl 3-(N-(2-(4-fluoro-2-isopropyl-6-(2-methoxypyridin-4-yl)phenyl)acetyl)sulfamoyl)-1-methyl-1H-pyrazole-5-carboxylate] |
| ≤ 10 | COc1cc(-c2cc(F)cc(C(C)C)c2CC(=O)NS(=O)(=O)c2ccc(C(C)(C)O)cn2)ccn1 [Example 137] |
| ≤ 10 | COc1cc(-c2cc(F)cc(C(C)C)c2CC(=O)NS(=O)(=O)CCCC(C)(C)O)ccn1 [Example 78, 2-(4-Fluoro-2-isopropyl-6-(2-methoxypyridin-4-yl)phenyl)-N-((4-hydroxy-4-methylpentyl)sulfonyl)acetamide] |
| ≤ 10 | COc1cc(-c2cc(F)cc(C(C)C)c2CC(=O)NS(=O)(=O)c2c(C)cc(N(C)C)cc2C)ccn1 [Example 146] |
| ≤ 5 | COc1cc(-c2cc(F)cc(C(C)C)c2CC(=O)NS(=O)(=O)c2ccc(C(C)(C)N(C)C)c(F)c2)ccn1 [Example 91, N-((4-(2-(Dimethylamino)propan-2-yl)-3-fluorophenyl)sulfonyl)-2-(4-fluoro-2-isopropyl-6-(2-methoxypyridin-4-yl)phenyl)acetamide] |
| ≤ 5 | COc1cc(-c2cc(F)cc(C(C)C)c2CC(=O)NS(=O)(=O)c2cccc(CN(C)C)c2)ccn1 [Example 180] |
| ≤ 5 | CC(C)c1cc(F)cc(-c2ccncc2)c1CC(=O)NS(=O)(=O)c1ccn(C(C)(C)CN(C)C)n1 [Example 61, N-((1-(1-(Dimethylamino)-2-methylpropan-2-yl)-1H-pyrazol-3-yl)sulfonyl)-2-(4-fluoro-2-isopropyl-6-(pyridin-4-yl)phenyl)acetamide] |
| ≤ 5 | COc1cc(-c2cc(F)cc(C(C)C)c2CC(=O)NS(=O)(=O)c2ccc(C(C)=O)cc2)ccn1 [Example 43, N-((4-Acetylphenyl)sulfonyl)-2-(4-fluoro-2-isopropyl-6-(2-methoxypyridin-4-yl)phenyl)acetamide] |
| ≤ 0.5 | CCC(O)(CC)c1cc(S(=O)(=O)NC(=O)Cc2c(-c3ccnc(OC)c3)cc(F)cc2C(C)C)sc1C [Example 199] |
| ≤ 0.5 | COC(=O)c1cc(S(=O)(=O)NC(=O)Cc2c(-c3ccnc(OC)c3)cc(F)cc2C(C)C)sc1C [Example 176] |
| ≤ 5 | COc1cc(-c2cc(F)cc(C(C)C)c2CC(=O)NS(=O)(=O)c2c(C)nn(C(C)C)c2C)ccn1 [Example 152] |

— US12030879B2, “Sulfonyl acetamides as NLRP3 inhibitors” (Inflazome Limited, priority 2018, dated 2024)
